Where two headings read alike, the source gives them in different places.
Experiments:
SW1573 cells [1] = test: Zebrafish larvae SW1573 xenotransplant; assay type: in vivo
Method: The inventors microinjected SW1573 cells into the perivitelline space of 48 hour post-fertilization (hpf) zebrafish larvae.

SW1463 = test: Cell proliferation, colorectal G12C homozygous cell line; assay type: cell-based; details: Homo sapiens, SW1463, read-out: inhibition of proliferation
From the text: For this experiment the inventors chose SW837 and SW1463 colorectal cell line. The SW837 cell is heterozygous for the G12C mutation whereas the SW1463 is homozygous for the G12C mutation. A stable cell line expressing mKATE2 for Incucyte live cell imaging and analysis was generated.

H23 = test: Cell proliferation assay, 2D (IncuCyte live cell imaging); assay type: cell-based
Method: (§1) The cells grown in 2D cultures were treated with various concentrations of the drug, and the effect on cell proliferation was determined in real time using the live cell proliferation assay (IncuCyte, Essen Bioscience, Inc.) as described in the methods.
(§2) Cell proliferation and apoptosis assay: Cell proliferation assays were performed using cell lines stably transfected with NucLight Red Lentivirus (Essen BioScience) to accurately visualize and count the nucleus of a single cell. Cells were seeded on a 96-well plate and allowed to adhere for 24 h. Test compounds were added at indicated concentrations. Caspase-3/7 Green Apoptosis Reagent (Essen BioScience) was also added as a green fluorescent indicator of caspase3/7-mediated apoptotic activity. To monitor cell proliferation and apoptosis over time, the plate was placed in the IncuCyte S3 Live Cell Imaging System (Essen BioScience) and images were acquired every 2 hours. Data analysis was generated by the IncuCyte software using a red fluorescence mask to accurately count each cell nucleus and a green fluorescence mask to measure apoptosis over time. 3D spheroid assay 3D spheroid experiments were performed using cell lines stably transfected with NucLight Red Lentivirus (Essen BioScience) to visualize red fluorescence as an indicator of cell viability. Cells were seeded on a 96-well ultra-low attachment plate and allowed to form spheroids overnight. Drug treatment was added as indicated along with Cytotox Green Reagent (Essen BioScience), used as a green fluorescence indicator of cell death due to loss of cell membrane integrity. To monitor cell proliferation and apoptosis over time, the plate was placed in the IncuCyte S3 Live Cell Imaging System (Essen BioScience) and images were acquired every 2 hours. Data analysis was generated by the IncuCyte software using a red fluorescence mask to accurately measure intensity and area of red fluorescence, indicating spheroid viability and a green fluorescence mask, indicating cell death. Cell cycle analysis.

H358 = test: as above; assay type: cell-based; details: Homo sapiens, NCI-H358
Method: as §1, §2

SW1573 cells [2] = test: Cell cycle analysis (FACS); assay type: cell-based; details: 20 μM, 72 hours
From the text: Using commercially available lentiviral particles (Essen Bioscience Inc.), a SW1573 stable cell line was developed to determine the dynamics of the cell cycle in response to the KRAS inhibitors. In the G1 phase, these cells express the red fluorescent protein and in G2, they express the green fluorescent protein, and cells transitioning from G1 to […], express both the proteins giving rise to yellow florescence.
Cell cycle analysis. […] The stable cell line was generated using the puromycin selection media. Yellow cells are indicative of cell cycle transition from G1 to S while non-fluorescent cells are moving from M to G1.

SW1573 [3] = test: Cell proliferation assay, 2D (IncuCyte live cell imaging); assay type: cell-based; details: for IC50 / inhibition of cell growth at last time point: SW1573; for inhibition of cell growth at last time point: 96 hours
Method: The cells were seeded at density of 10000 cells/well 12 hours prior to the experiment. Once the cells attached to the plate the media was removed and the drugs were added to the cells. […] Cell proliferation was observed using the IncuCyte Live Imaging System for 72 hrs.
Knockdown of ITGB4 (Cat #SR302473C) at the mRNA level in the SW1573 cells was done using siRNAs purchased from OriGene Technologies (Rockville, Md., USA). JetPRIME transfection reagent (Polyplus Transfection, Illkirch, France) was used to transfect the siRNAs according to the manufacturer's protocol. Cells were seeded in 6-well plates (200,000 cells/well) and allowed to adhere overnight. Next day, 10 nM siRNA was transfected with 4 μl jetPRIME reagent in complete growth medium for each well. Next day cells were trypsinized, counted and re-plated on the 96 well plate for cell proliferation and drug assay. […] Cell growth medium was changed the next day and expression was detected 72 h post-transfection by immunoblotting.
as §1, §2

H23 cells = test: Zebrafish larvae H23 xenotransplant; assay type: in vivo; details: 72 h, 12 µM
SW1573 cells [4] = test: Protein array of global phosphorylation changes; assay type: cell-based; details: IC50 concentration; 72 hours
Method: The phosphorylation changes were analyzed employing the AVM BioMed protein array platform.

[5] = tested on: ITGB4-overexpressing H23 cells; test: Cell proliferation, ITGB4-overexpressing cells; assay type: cell-based; details: Homo sapiens, NCI-H23
SW1573 [6] = test: Drug combination synergy assay (inhibition matrix); assay type: cell-based; details: Homo sapiens, read-out: inhibition of cell growth
Method: The synergy finder codes were used to determine the synergy between drugs for 48 possible combinations. The codes were run using the R-platform and synergy was calculated and represented as the synergy landscape.
Drug Combination Synergy Assay: For combination index (CI) calculation, SW1573 and H23 incured cell lines were seeded in 96-well plate with 5000 cells per well. Three biological replicates (three 96-well plates for each drug combination) were used. […] The drugs were used in linear dilution series with dilution factor of 2. […] Further, R package called SynergyFinder (He et al., 2018) was used to find the nature of drug-drug interaction (i.e. if they work in synergy or antagonistically or non-interactively). For this purpose, the drug response matrix is supplied to the mentioned package, which then uses several models namely Highest Single Agent (Berenbaum, 1989), Loewe additivity (Loewe, 1953), Bliss independence (Bliss, 1939) and Zero Interaction Potency (Yadav et al., 2015) to quantify the degree of drug synergy. The dose response matrix was used to calculate individual CI values for IC30, IC50 and IC70 drug treatments. The output values were used to plot isobolograms using the following formula. CI=IC50 (A) pair IC50 (A)+IC50 (B) pair IC50 (B)

C=CC(=O)N1CCN(c2nc(=O)n(-c3c(C)ccnc3C(C)C)c3nc(-c4c(O)cccc4F)c(F)cc23)[C@@H](C)C1 [sotorasib]
most effective dose, drug alone (obliterates SW1573 cells) (SW1573 cells [1]): 12 µM
toxic dose, drug alone (SW1573 cells [1]): 18 µM
inhibition at 10 µM (SW1463): 40%
cell count (H23; H23, 1-3 μM, 24 h, start 9,000, control 15,000): 12,000
IC50 (H23; Homo sapiens, NCI-H23, 72 h, H23, 72 hours, Example 6): 3000 nM
IC50 (H23; Homo sapiens, NCI-H23, H23, Example 1, FIG. 14C-14D): 3200 nM
inhibition at 0.3 µM (H23; Homo sapiens, NCI-H23, H23, 0.3 μM): ~20%
inhibition at 10 µM (H23; Homo sapiens, NCI-H23, H23, 72 hours, read-out: inhibition of proliferation / cell growth): ~80%
inhibition at 5 µM (H23; Homo sapiens, NCI-H23, H23 parental cells, 5 μM, FIG. 4B, read-out: inhibition of proliferation): 50%
inhibition at 10 µM (H23; Homo sapiens, NCI-H23, H23 parental cells, FIG. 4B, read-out: inhibition of proliferation): 70%
IC50 (H358): 63 nM
inhibition at 0.61 µM (H358; H358, 0.61 μM): ~60%
IC50 (H358; H358, 72 hours, Example 6, read-out: IC50, cell proliferation): 130 nM
IC50 (H358; H358, Example 1, FIG. 14C-14D, read-out: IC50, cell proliferation): 800 nM
G2 population (SW1573 cells [2]; from 26%): 11%
G1 population (SW1573 cells [2]; from about 39%): 62%
inhibition at 10 µM (SW1573 [3]; Homo sapiens, SW1573, 72 h, read-out: inhibition of proliferation / cell growth): ~50%
IC50 (SW1573 [3]; Homo sapiens, 72 hours, Example 6): 9500 nM
IC50 (SW1573 [3]; Homo sapiens, Example 1, FIG. 14C-14D): 8000 nM
inhibition of cell growth at last time point (SW1573 [3]; ITGB4/β-catenin double knockdown plus sotorasib): about 70%
inhibition of cell growth at last time point (SW1573 [3]; sotorasib at IC50 concentration only): about 40%
reduction of tumor growth (median) (H23 cells): about 80%
number of proteins with phosphorylation changes unique to the treatment (SW1573 cells [4]): 1482 proteins
number of proteins with significant phosphorylation changes (SW1573 cells [4]): 1764 proteins
inhibition at 10 µM [5]: 5%
inhibition at 16 µM (SW1573 [6]): ~10%

From patent publication US20230285498A1, “TREATMENTS FOR CANCERS HAVING KRAS MUTATIONS” (City of Hope, priority 2020, published 2023)
